Reference: the SangsterLogP compilation

Compound	logP
CNC(=O)Oc1cc(C)cc(C)c1	2.23
c1ccc2[nH]ncc2c1	1.77
Fc1ccccc1F	2.37
O=C(O)COc1cccc(C(F)(F)F)c1	2.36
CC(C)(C)COC(N)=O	0.94
O=C1NC(=O)C(c2ccccc2)(c2ccccc2)C(=O)N1	1.96
COc1ccc(C(C)=O)cc1	1.74
c1ccc2c(c1)[nH]c1ccccc12	3.72
Nc1ncnc2c1ncn2[C@@H]1O[C@H](CO)[C@@H](O)[C@H]1O	-1.05
O=C(O)COc1ccc(Cl)cc1Cl	2.81
CSc1ccc2c(c1)N(CCC1CCCCN1C)c1ccccc1S2 (configuration not stated)	5.9
Cc1cccc(C)c1	3.2
C=CC	1.77
O=[N+]([O-])c1cc(Br)c(O)c(Br)c1	3.57
NC(=O)Cc1ccncc1	-0.65
c1cc2c3c(cccc3c1)CC2	3.92
Nc1ccc(C(=O)NCC(=O)O)cc1	-0.89
CC(=O)Oc1ccccc1C(=O)O	1.19
Cn1c([N+](=O)[O-])cnc1COC(N)=O	-0.38
CCCCC(CC)CN (configuration not stated)	2.82
CNC(=O)Oc1ccc(C)c(C)c1	2.09
CCCC(C)C1(CC)C(=O)NC(=S)NC1=O (configuration not stated)	2.85
O=C(O)c1cccc(O)c1	1.5
CCc1ccccc1OCC(=O)O	2.53
CC(=O)c1ccc(Br)cc1	2.43
C=C1C(=O)OC2CC(C)C3C=CC(=O)C3(C)C(O)C12 (configuration not stated)	0.87

Compound	logP
c1ccc2nc3ccccc3cc2c1	3.4
O=C(O)c1ccc(I)cc1	3.02
CC(=O)Nc1ccc(F)cc1	1.47
CNC(=O)Oc1cccc(OC)c1	1.3
OCC(F)(F)F	0.41
CC(C)C(=O)C(C#N)=NNc1cc(C(F)(F)F)ccc1Cl	5.31
Cc1ccccc1S(N)(=O)=O	0.84
CN(C)C(=O)COc1ccccc1	0.8
CC1(C)S[C@@H]2[C@H](NC(=O)C(C(=O)O)c3ccccc3)C(=O)N2[C@H]1C(=O)O (some centres not stated)	1.13
C/C=N/O	-0.13
Cc1cnc(NS(=O)(=O)c2ccc(N)cc2)nc1	0.34
Nc1cccc2ncccc12	1.16
CCCCC1(CC)C(=O)NC(=O)NC1=O	1.73
COC1=CC(=O)C[C@@H](C)[C@]12Oc1c(Cl)c(OC)cc(OC)c1C2=O	2.18
CCS(=O)(=O)CCn1c([N+](=O)[O-])cnc1C	-0.35
O=S(c1ccccc1)c1ccccc1	2.06
Cc1ccc(C)c2ccccc12	4.37
COC(=O)C(C#N)=NNc1ccc(Cl)c(C(F)F)c1	3.8
Nc1ncnc2c1ncn2[C@H]1C[C@H](F)[C@@H](CO)O1	0.08
Cc1cc(N)c(C)c(O)c1C(=O)O	3.38
Cc1ccc(CO)cc1	1.58
Nc1ccc(C(=O)O)c(O)c1	0.89
O=[N+]([O-])c1ccc(N=C=S)cc1	3.62
NS(=O)(=O)c1ccc([N+](=O)[O-])cc1	0.64
O=C(O)c1cccc([N+](=O)[O-])c1	1.83
NC(CCCc1ccccc1)C(=O)O (configuration not stated)	-0.36

Compound	logP
Cc1ccc2ccccc2c1	3.86
CSc1nnc(CCC(C)C)c(=O)n1N	1.85
CC/C(=C(/CC)c1ccc(O)cc1)c1ccc(O)cc1	5.07
Nc1nc2c(ncn2[C@H]2C[C@H](O)[C@@H](CO)O2)c(=O)[nH]1	-1.3
CN(C)N=O	-0.57
C[C@@H]1C[C@H]2[C@@H]3CCC4=CC(=O)C=C[C@]4(C)[C@@]3(F)[C@@H](O)C[C@]2(C)[C@@]1(O)C(=O)CO	1.83
c1cncc([C@@H]2CCCCN2)c1	0.97
CC(=O)c1ccccn1	0.85
Nc1nc2c(ncn2[C@H]2C[C@H](O)[C@@H](CO)O2)c(=S)[nH]1	-0.79
CN(C)CCN1c2ccccc2Sc2ccccc21	4.2
CC(C)(C)NCC(O)COc1nsnc1N1CCOCC1 (configuration not stated)	1.83
C1CO1	-0.3
C=C	1.13
O=Nc1c(O)ccc2ccccc12	2.28
CC(O)Cn1cnc2c1c(=O)n(C)c(=O)n2C (configuration not stated)	-0.77
Cc1ccc(Cc2cnc(NCCSCc3ccc(C(C)(C)N)o3)[nH]c2=O)cn1	2.06
c1ccc2c(c1)ccc1c3ccccc3ccc21	5.81
O=C(O)COc1ccccc1I	2.33
NS(=O)(=O)c1cccc([N+](=O)[O-])c1	0.55
Cc1ccccc1N(C)C	2.85
CC(=O)c1ccc(C)cc1	2.1
C1CN2CCC1CC2	1.38
COP(=O)(OC)OC	-0.65
CCC(=O)c1cccc(OC(=O)NC)c1	1.49
C=CCNCC	0.81
NS(=O)(=O)c1ccccc1[N+](=O)[O-]	0.34

Compound	logP
CCc1ccccn1	1.69
OCCN1CCN(CCCN2c3ccccc3Sc3ccc(C(F)(F)F)cc32)CC1	4.36
Cc1cc(=O)oc2cc(O)ccc12	1.9
CN1CCC(=C2c3ccccc3C=Cc3ccccc32)CC1	4.69
c1ccc2sccc2c1	3.12
NNC(=O)c1ccccc1	0.19
c1cn[nH]c1	0.26
Cc1cccc(N)c1	1.4
NNC(=O)c1ccnc(F)c1	-0.11
CCOC(=O)C1(c2ccccc2)CCN(C)CC1	2.72
CCc1ccccc1C	3.53
NCc1cccnc1	-0.32
COC(=O)c1cccnc1	0.83
CC(=O)C(C#N)=NNc1ccc(SC(F)(F)F)cc1	5.04
O=[N+]([O-])c1ccccc1O	1.79
Cc1cccc(C)c1C	3.66
NCC(F)(F)F	0.24
Nc1ccc2ncccc2c1	1.28
Nc1ccccc1Cl	1.9
CCCCNC(=O)NS(=O)(=O)c1ccc(N)cc1	1.01
O=[N+]([O-])c1ccc2c(c1)c([N+](=O)[O-])cc[n+]2[O-]	0.9
CCOC(=O)c1cccnc1	1.32
Cc1ccc(Cl)cc1	3.33
CNCC(O)c1ccc(O)c(O)c1 (configuration not stated)	-1.37
CCCN(CCC)N=O	1.36
CNC(=O)Oc1ccccc1I	1.94

Compound	logP
S=C=Nc1ccccc1	3.28
Clc1cccc2cccnc12	2.44
Cc1ccc2cc(C)ccc2c1	4.31
O=C(O)c1cc(I)cc(I)c1O	4.56
C=CCNCC=C	1.11
Nc1ccn(C2C=CC(CO)O2)c(=O)n1 (configuration not stated)	-1.55
CCCNC(C)CC (configuration not stated)	1.91
CSc1nncc(=O)n1N	0.38
COc1ccccc1OCC(=O)O	0.98
O=C(O)C(c1ccccc1)c1ccccc1	3.09
COc1ccc(O)cc1	1.58
CCCCCC=O	1.78
Oc1c(Br)cc(Br)c(O)c1Br	4.37
O=C(O)c1ccccc1Oc1ccccc1	3.11
CCOc1ccc(O)cc1	1.81
CN(N=O)C(N)=O	-0.03
O=S(=O)(c1ccccc1)c1ccccc1	2.4
Cc1cccc(OCC(=O)O)c1	1.78
c1ccoc1	1.34
Brc1cnc2ccccc2c1	3.03
OCCN1CCN(CC/C=C2\c3ccccc3Sc3ccc(C(F)(F)F)cc32)CC1	4.51
CN(C)S(=O)(=O)c1ccc(N)cc1	0.67
NNC(=O)c1ccncc1	-0.7
O=C1[C@H]2CC=CC[C@H]2C(=O)N1SC(Cl)(Cl)Cl	2.8
COc1ccc(CC(C)N)c(OC)c1 (configuration not stated)	1.75
CN(C)CCN1C(=O)c2ccccc2N(C)c2ccccc21	2.5

Compound	logP
CC(C)NCC(O)COc1cccc2[nH]ccc12 (configuration not stated)	1.75
COc1nnc(C(C)C)c(=O)n1N	-0.06
CCC(=O)O	0.33
O=C(O)Cc1ccc([N+](=O)[O-])cc1	1.39
CC(C)C(=O)C(C#N)=NNc1ccc(Cl)cc1C(F)(F)F	5.67
c1cncnc1	-0.4
Nc1nc2c(ncn2[C@@H]2O[C@H](CO)[C@@H](O)[C@H]2O)c(=O)[nH]1	-1.9
NCCc1ccccc1	1.41
CNC(C)Cc1ccccc1 (configuration not stated)	2.07
CCCCCn1nnc2ccccc21	3.22
c1ccc2[nH]nnc2c1	1.44
O=C(O)COc1ccccc1[N+](=O)[O-]	1.13
Nc1ncnc2c1ncn2[C@H]1C=C[C@@H](CO)O1	-0.5
FC(F)(Cl)C(F)(F)Cl	2.82
Nc1ccc2ccccc2c1	2.28
CCC(=O)c1ccccc1	2.19
Oc1cccc(Br)c1	2.63
O=C(O)COc1ccccc1	1.34
CCCNCCC	1.67
O=[N+]([O-])c1cccc2ccc[n+]([O-])c12	0.04
CC#N	-0.34
CCCCc1ccc(C(=O)O)nc1	-1.29
Brc1ccc2[nH]ccc2c1	3
NCCCC[C@H](N)C(=O)O	-3.05
CN(C)CCCN1c2ccccc2Sc2ccccc21	4.55
CC(C)=O	-0.24

Compound	logP
COc1ccc(N)cc1	0.95
CCCCNc1ccc(C(=O)OCCN(C)C)cc1	3.51
COC(=O)C(C#N)=NNc1ccccc1C(F)(F)F	3.7
CS(=O)(=O)c1ccccc1	0.5
Cc1ccc2[nH]ccc2c1	2.68
CCCC(C)(COC(N)=O)COC(N)=O	0.7
O=[N+]([O-])c1ccc(Br)cc1	2.55
O=C(O)c1cccc(I)c1	3.13
c1ccc2c(c1)ccc1ccccc12	4.46
N#Cc1cccc([N+](=O)[O-])c1	1.17
Nc1ccc(S(=O)(=O)Nc2ccnn2-c2ccccc2)cc1	1.52
Cn1c([N+](=O)[O-])cnc1/C=C/c1ccnc(N)n1	0.85
CNC(=O)Oc1ccc(I)cc1	2.46
O=C(O)Cc1ccc(I)cc1	2.64
CN(C)C(=O)c1ccccc1	0.62
c1ccc2[nH]ccc2c1	2.14
C=CCOc1ccccc1OCC(O)CNC(C)C (configuration not stated)	2.1
Clc1ccccc1	2.84
Oc1ccc(I)cc1	2.91
Nc1nc(S)c2nc[nH]c2n1	-0.07
O=C(O)c1cc(Br)ccc1O	3.23
